# Laboratory results reported in PubChem BioAssay AID256 (DTP/NCI, 2004).
# “And” between values parts separate entries of the source, which are not always exact repeats. Equal values may be shown once. Inconclusive results and toxic doses are left out.
# System: CD2F1 mice, L1210 leukemia ip, survival T/C
# Experiment: NCI In Vivo Anticancer Drug Screen. Data for tumor model L1210 Leukemia (intraperitoneal) in CD2F1 (CDF1) mice
# Settings: endpoint: mean survival time, higher = longer survival
# Summary of the method: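 Antitumor effect is scored in animals hosting a serially transplanted tumor. Values compare compound-dosed animals against vehicle-only controls as a simple quotient.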
# [1] = dose: 100.0 mg/kg/injection, schedule: Q01DX009 (ip), vehicle: saline with Tween-80
# [2] = dose: 100.0 mg/kg/injection, schedule: Q04DX003 (ip), vehicle: saline with Tween-80
# [3] = dose: 200.0 mg/kg/injection, schedule: Q01DX009 (ip), vehicle: saline with Tween-80
# [4] = dose: 200.0 mg/kg/injection, schedule: Q04DX003 (ip), vehicle: saline with Tween-80
# [5] = dose: 400.0 mg/kg/injection, schedule: Q04DX003 (ip), vehicle: saline with Tween-80
# [6] = dose: 400.0 mg/kg/injection, schedule: Q01DX009 (ip), vehicle: saline with Tween-80
# [7] = dose: 100.0 mg/kg/injection, schedule: Q04DX002 (ip), vehicle: saline with Tween-80
# [8] = dose: 200.0 mg/kg/injection, schedule: Q04DX002 (ip), vehicle: saline with Tween-80
# [9] = dose: 400.0 mg/kg/injection, schedule: Q04DX002 (ip), vehicle: saline with Tween-80
# [10] = dose: 200.0 mg/kg/injection, schedule: Q04DX003 (ip), vehicle: saline
compound,measurement,setting,value
CN(C)S(=O)(=O)C(C)(C)c1ccccc1,T/C,"dose: 100.0 mg/kg/injection, schedule: Q01DX001 (ip), vehicle: saline with Tween-80",100 % of control
same,T/C,[1],96 % of control
same,T/C,[2],94 % of control
same,T/C,"dose: 200.0 mg/kg/injection, schedule: Q01DX001 (ip), vehicle: saline with Tween-80",101 % of control
same,T/C,[3],96 % of control
same,T/C,[4],94 % of control
same,T/C,"dose: 400.0 mg/kg/injection, schedule: Q01DX001 (ip), vehicle: saline with Tween-80",100 % of control
same,T/C,[5],96 % of control
CNC(=O)Sc1nnnc2ccccc12,T/C,[2],101 % of control
same,T/C,[4],93 % of control
same,T/C,[5],98 % of control
COS(=O)C(c1ccccc1)C(c1ccccc1)C(O)c1ccccc1 (stereo not given),T/C,[1],90 % of control
same,T/C,[3],90 % of control
same,T/C,[6],95 % of control
Nc1cccc2cc3ccccc3[n+]([O-])c12,T/C,[2],104 % of control
same,T/C,[4],108 % of control
same,T/C,[5],95 % of control
O=C(CCCl)OCCCl,T/C,[2],102 % of control
same,T/C,[4],92 % of control
COC(=O)Nc1ccc(Cl)cc1[N+](=O)[O-],T/C,[7],95 % of control
same,T/C,[8],95 % of control
same,T/C,[9],91 % of control
CCOC(=O)NC(=O)CC#N,T/C,[2],101 % of control
same,T/C,[4],93 % of control
same,T/C,[5],103 % of control
CC1Oc2ccccc2OC1C(=O)NN (stereo not given),T/C,[1],92 % of control
same,T/C,[3],94 % of control
same,T/C,[6],94 % of control
CCCCCCCNC(=O)Nc1cc([N+](=O)[O-])ccc1C,T/C,[2],93 % of control
same,T/C,[4],94 % of control
same,T/C,[5],98 % of control
OC(CC(CC(O)(C(F)(F)F)C(F)(F)F)=NNc1ccccc1)(C(F)(F)F)C(F)(F)F,T/C,"dose: 25.0 mg/kg/injection, schedule: Q01DX009 (ip), vehicle: saline with Tween-80",92 % of control
same,T/C,"dose: 50.0 mg/kg/injection, schedule: Q01DX009 (ip), vehicle: saline with Tween-80",93 % of control
[Cl][Pt+2][Cl].[NH-]CC(C[NH-])(Cc1ccccc1)Cc1ccccc1,T/C,"dose: 3.12 mg/kg/injection, schedule: Q04DX003 (ip), vehicle: saline",97 % of control
same,T/C,"dose: 6.25 mg/kg/injection, schedule: Q04DX003 (ip), vehicle: saline",103 % of control and 111 % of control
same,T/C,"dose: 12.5 mg/kg/injection, schedule: Q04DX003 (ip), vehicle: saline",115 % of control and 111 % of control
same,T/C,"dose: 25.0 mg/kg/injection, schedule: Q04DX003 (ip), vehicle: saline",115 % of control
same,T/C,[10],172 % of control
CCC(C)(S(=O)(=O)CC)S(=O)(=O)CC,T/C,[2],102 % of control
same,T/C,[4],98 % of control
same,T/C,[5],98 % of control
Cc1ccc(C(O)(c2ccccc2)c2ccccc2C(=O)Nc2ccccc2)cc1 (stereo not given),T/C,[2],88 % of control
same,T/C,[4],90 % of control
same,T/C,[5],95 % of control
O=C1CCSc2ccccc21,T/C,"dose: 75.0 mg/kg/injection, schedule: Q01DX009 (ip), vehicle: saline with Tween-80",95 % of control
same,T/C,[2],104 % of control
same,T/C,"dose: 100.0 mg/kg/injection, schedule: Q04DX003 (ip), vehicle: saline",100 % of control
same,T/C,"dose: 150.0 mg/kg/injection, schedule: Q01DX009 (ip), vehicle: saline with Tween-80",102 % of control
same,T/C,[4],101 % of control
same,T/C,[10],100 % of control
same,T/C,"dose: 300.0 mg/kg/injection, schedule: Q01DX009 (ip), vehicle: saline with Tween-80",96 % of control
same,T/C,[5],102 % of control
same,T/C,"dose: 400.0 mg/kg/injection, schedule: Q04DX003 (ip), vehicle: saline",100 % of control
CC/C(=N/NC(=O)c1ccccc1)c1ccccc1,T/C,"dose: 100.0 mg/kg/injection, schedule: Q01DX009 (ip), vehicle: Klucel (hydroxypropylcellulose) (HPC)",97 % of control
same,T/C,"dose: 100.0 mg/kg/injection, schedule: Q04DX003 (ip), vehicle: Klucel (hydroxypropylcellulose) (HPC)",96 % of control
same,T/C,"dose: 200.0 mg/kg/injection, schedule: Q04DX003 (ip), vehicle: Klucel (hydroxypropylcellulose) (HPC)",94 % of control
same,T/C,"dose: 400.0 mg/kg/injection, schedule: Q04DX003 (ip), vehicle: Klucel (hydroxypropylcellulose) (HPC)",86 % of control
O=C1NCC(c2ccccc2)(C2CC2)O1 (stereo not given),T/C,[7],100 % of control
same,T/C,[8],100 % of control
same,T/C,[9],100 % of control
